In ChEMBL document CHEMBL5149962, “Targeting KRAS mutant cancers by preventing signaling transduction in the MAPK pathway” (Eur J Med Chem, 2021):

Tests used:
GTPase KRas [1] = target: T1, GTPase KRas (Homo sapiens, UniProt P01116, G12V); experiment: Binding affinity to GDP-bound KRAS G12V RAS mutant (unknown origin)
GTPase HRas = GTPase HRas (Homo sapiens, UniProt P01112); experiment: Inhibition of human p21 h-RAS assessed as reduction in C-Cdc25 stimulated nucleotide exchange by luminescence spectrometer based analysis
GTPase KRas [2] = target: GTPase KRas (Homo sapiens, UniProt P01116); experiment: Binding affinity to KRAS (unknown origin) assessed as dissociation constant
[3] = Binding affinity to human FPTase assessed as inhibition constant
[4] = Lipophilicity, logP of the compound; format: physicochemical; settings: octanol/water
HCT-116 [5] = experiment: Antiproliferative activity against human HCT-116 cells harboring KRAS G13D mutant assessed as cell growth inhibition measured after 96 hrs by MTT assay; format: functional
[6] = Inhibition of human N-terminal His-tagged recombinant wild-type KRAS (1 to 156 residues) expressed in Escherichia coli BL21 (DE3)/SAH-SOS1A by fluorescence based polarization assay
[7] = target: Protein farnesyltransferase subunit beta (Homo sapiens, UniProt P49356); experiment: Displacement of M [3H] farnesyl diphosphate from human PFTase expressed in Escherichia coli
[8] = Inhibition of GDP-tagged human RAS (1 to 166 residue) incubated for 20 mins by using Centricon-10 micro concentrators analysis
GTPase KRas [9] = target: GTPase KRas (Homo sapiens, UniProt P01116, G12C); experiment: Inhibition of KRAS G12C mutant (unknown origin)
[10] = Inhibition of HRAS […] mutant (unknown origin) expressed in mouse NIH3T3 cells assessed as inhibition of post-translational modification processing; format: cell-based, Homo sapiens
GTPase KRas [11] = target: T1, GTPase KRas; experiment: Inhibition of KRAS G12V mutant (unknown origin) expressed in mouse NIH3T3 cells assessed as inhibition of post-translational modification processing; format: cell-based
HCT-116 [12] = experiment: Antitumor activity against human HCT-116 cells xenografted in BALB/c nude mouse assessed as reduction in tumor size at 100 mg/kg measured twice a week for 21 days relative to control; format: functional; design: scale not given: the % may be the effect or the level left; settings: time 21 day
HT-1080 = experiment: Antitumor activity against human HT-1080 cells xenografted in BALB/c nude mouse assessed as reduction in tumor size at 100 mg/kg measured twice a week for 21 days relative to control; format: functional; design: scale not given: the % may be the effect or the level left; settings: time 21 day

T1 sequence (P01116 whole entry G12V): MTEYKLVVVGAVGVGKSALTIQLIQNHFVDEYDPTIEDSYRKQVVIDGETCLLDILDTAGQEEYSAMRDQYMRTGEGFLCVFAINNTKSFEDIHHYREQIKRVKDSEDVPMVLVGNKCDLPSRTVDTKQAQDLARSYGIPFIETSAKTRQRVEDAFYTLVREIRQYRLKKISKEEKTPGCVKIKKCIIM
Protein farnesyltransferase subunit beta, sequence (P49356 whole entry): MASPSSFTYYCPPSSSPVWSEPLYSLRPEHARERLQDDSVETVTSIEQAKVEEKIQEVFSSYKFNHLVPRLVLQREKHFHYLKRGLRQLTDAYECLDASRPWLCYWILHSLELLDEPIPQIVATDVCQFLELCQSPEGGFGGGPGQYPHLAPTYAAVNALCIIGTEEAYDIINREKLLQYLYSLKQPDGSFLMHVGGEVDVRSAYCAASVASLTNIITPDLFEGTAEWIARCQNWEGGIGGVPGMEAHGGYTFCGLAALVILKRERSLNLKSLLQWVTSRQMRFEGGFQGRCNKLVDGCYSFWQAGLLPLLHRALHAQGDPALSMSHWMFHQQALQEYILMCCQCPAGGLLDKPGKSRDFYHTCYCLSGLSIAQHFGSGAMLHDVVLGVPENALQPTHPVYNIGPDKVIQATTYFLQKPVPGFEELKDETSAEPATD
GTPase HRas, sequence (P01112 whole entry): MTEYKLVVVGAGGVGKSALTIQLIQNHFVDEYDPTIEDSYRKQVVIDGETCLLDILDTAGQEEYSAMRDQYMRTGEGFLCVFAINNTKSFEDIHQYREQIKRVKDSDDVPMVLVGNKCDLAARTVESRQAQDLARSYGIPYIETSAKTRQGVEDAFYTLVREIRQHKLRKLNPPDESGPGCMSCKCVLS
GTPase KRas (Homo sapiens, UniProt P01116, G12C), sequence (P01116 whole entry G12C): as the sequence (P01116 whole entry G12V) above, with V12C counted along it
GTPase KRas (Homo sapiens, UniProt P01116), sequence (P01116 whole entry): as the sequence (P01116 whole entry G12V) above, with V12G counted along it

O=S(=O)(c1ccc(NO)cc1)N(CCOc1ccc2ccccc2c1)[C@@H]1O[C@H](CO)[C@@H](O)[C@H](O)[C@H]1O
IC50 (GTPase KRas [1]): 700 nM

O=S(=O)(NCCOc1ccc2ccccc2c1)c1ccc(NO)cc1
IC50 (GTPase KRas [1]): 500 nM | IC50 (GTPase HRas): 56 µM

Cc1[nH]c2cc(Cl)cc(Cl)c2c1CCN
Kd (GTPase KRas [2]): 1.1 mM

CC(C)=CCC/C(C)=C/CC/C(C)=C/C(O)P(=O)(O)O (centres undefined)
Ki [3]: 5.2 nM

C=C1CC[C@@H]2[C@]3(C)COC(c4cccc(Br)c4)O[C@@H]3CC[C@@]2(C)[C@@H]1C/C=C1/C(=O)OC[C@H]1O (some centres undefined)
logP [4]: 2.6

C=C1CC[C@@H]2[C@]3(C)COC(c4ccc(F)c(Br)c4)O[C@@H]3CC[C@@]2(C)[C@@H]1C/C=C1/C(=O)OC[C@H]1O (some centres undefined)
logP [4]: 2.6 | GI50 (HCT-116 [5]): 4 µM

CC[C@H](C)[C@H](NC(=O)CNC(=O)[C@H](Cc1ccccc1)NC(=O)[C@@H](N)Cc1ccccc1)C(=O)N[C@@H](Cc1ccc(O)cc1)C(=O)N[C@@H](CC(C)C)C(=O)N[C@H](C(=O)N[C@@H](CC(N)=O)C(=O)N[C@@]1(C)CCC/C=C\CCC[C@@](C)(C(=O)N[C@@H](CCC(=O)O)C(=O)NCC(=O)N[C@@H](CC(N)=O)C(=O)O)NC(=O)[C@H]([C@@H](C)O)NC(=O)[C@H](CCCCN)NC(=O)[C@H](CC(C)C)NC1=O)[C@@H](C)O
EC50 [6]: 100 nM

CC[C@@H](C)[C@@H](CO[C@@H](Cc1ccccc1)C(=O)CC(CCS(C)(=O)=O)C(=O)O)NC[C@@H](N)CS (some centres undefined)
IC50 [7]: 1.8 nM

O=S(=O)(c1ccc(NO)cc1)N1CCC(=C2c3cc(Cl)ccc3CCc3cccnc32)CC1
IC50 [8]: 900 nM

Nc1nc2c(ncn2CCN(CCOc2ccc3ccccc3c2)S(=O)(=O)c2ccc(NO)cc2)c(=O)[nH]1
IC50 (GTPase KRas [1]): 500 nM

C=CC(=O)N1CCN(c2nc(NCCC(=O)N(C)C)nc3c(F)c(-c4cc(O)cc5ccccc45)c(Cl)cc23)CC1
IC50 (GTPase KRas [9]): 726 nM

C=C1CC[C@@H]2[C@]3(C)COC(c4ccccc4Br)O[C@@H]3CC[C@@]2(C)[C@@H]1C/C=C1/C(=O)OC[C@H]1O (some centres undefined)
logP [4]: 2.6 | GI50 (HCT-116 [5]): 3.1 µM

CSCC[C@H](CC(=O)[C@H](/C=C\[C@@H](/C=C/[C@@H](N)CS)C(C)C)Cc1ccccc1)C(=O)O
IC50 [10]: 500 nM | IC50 (GTPase KRas [11]): 25 µM

COC(=O)[C@H](CCSC)CC(=O)[C@H](/C=C\[C@@H](/C=C/[C@@H](N)CS)C(C)C)Cc1ccccc1
Activity (HCT-116 [12]): 20% | Activity (HT-1080): 40%
